Source: ChEMBL document CHEMBL1201862, “PubChem BioAssay data set” (2004)
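Test compounds were applied to cells in 96-well plates for 48 hours at 5 doses. At the GI50, growth is halved.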 Active and inactive are the calls of the source. Rule as the data show it: active = GI50 up to about 1.1 µM and inactive = higher.

Key:
Test in all cases: growth of human tumour cells (NCI), 48 h
[1] = test system: SNB-19
[2] = test system: KM12
[3] = test system: DU-145
[4] = test system: A498
[5] = test system: A549
[6] = test system: HCT-116
[7] = test system: UACC-257
[8] = test system: RXF 393
[9] = test system: HCC 2998
[10] = test system: K562
[11] = test system: ACHN
[12] = test system: MDA-N
[13] = test system: 786-0
[14] = test system: HT-29
[15] = test system: OVCAR-5
[16] = test system: MOLT-4
[17] = test system: MDA-MB-435
[18] = test system: CCRF-CEM
[19] = test system: OVCAR-3
[20] = test system: COLO 205
[21] = test system: SK-MEL-2
[22] = test system: SW-620
[23] = test system: HOP-92
[24] = test system: NCI-H226
[25] = test system: NCI-H23
[26] = test system: NCI/ADR-RES
[27] = test system: U-251
[28] = test system: OVCAR-4
[29] = test system: MDA-MB-231
[30] = test system: NCI-H460
[31] = test system: OVCAR-8
[32] = test system: LOX IMVI
[33] = test system: UO-31
[34] = test system: SF-539
[35] = test system: NCI-H522
[36] = test system: Hs-578T
[37] = test system: SK-MEL-5
[38] = test system: SF-268
[39] = test system: HOP-62
[40] = test system: RPMI-8226
[41] = test system: TK-10
[42] = test system: MCF7
[43] = test system: HCT-15
[44] = test system: M14
[45] = test system: EKVX
[46] = test system: Malme-3M
[47] = test system: SF-295
[48] = test system: SNB-75
[49] = test system: SN12C
[50] = test system: SR
[51] = test system: SK-OV-3
[52] = test system: SK-MEL-28
[53] = test system: UACC-62
[54] = test system: CAKI-1
[55] = test system: IGROV-1
[56] = test system: BT-549
[57] = test system: HL-60
[58] = test system: T47D
[59] = test system: PC-3

## CCOC(=O)c1c(Br)c(-c2ccc(Br)cc2)c(Br)n1C
[1]
  GI50: 28.3 µM (inactive)
[2]
  GI50: 10.2 µM (inactive)
[3]
  GI50: 31.1 µM (inactive)
[4]
  GI50: 18.2 µM (inactive)
[5]
  GI50: 23.6 µM (inactive)
[6]
  GI50: 6.32 µM (inactive)
[7]
  GI50: 20.7 µM (inactive)
[8]
  GI50: 11.2 µM (inactive)
[9]
  GI50: 19.5 µM (inactive)
[10]
  GI50: 5.08 µM (inactive)
[11]
  GI50: 23.4 µM (inactive)
[12]
  GI50: 3.4 µM (inactive)
[13]
  GI50: 20.5 µM (inactive)
[14]
  GI50: 11.7 µM (inactive)
[15]
  GI50: 19.4 µM (inactive)
[16]
  GI50: 16.4 µM (inactive)
[17]
  GI50: 3.15 µM (inactive)
[18]
  GI50: 14.7 µM (inactive)
[19]
  GI50: 14.7 µM (inactive)
[20]
  GI50: 14.9 µM (inactive)
[21]
  GI50: > 10 µM (inactive)
[22]
  GI50: 23.2 µM (inactive)
[23]
  GI50: 7.31 µM (inactive)
[24]
  GI50: 15.5 µM (inactive)
[25]
  GI50: 22.7 µM (inactive)
[26]
  GI50: 5.38 µM (inactive)
[27]
  GI50: 18 µM (inactive)
[28]
  GI50: 19.3 µM (inactive)
[29]
  GI50: 13.6 µM (inactive)
[30]
  GI50: 28.4 µM (inactive)
[31]
  GI50: 28.8 µM (inactive)
[32]
  GI50: 7.16 µM (inactive)
[33]
  GI50: 17.9 µM (inactive)
[34]
  GI50: 21.3 µM (inactive)
[35]
  GI50: 9.38 µM (inactive)
[36]
  GI50: 34.3 µM (inactive)
[37]
  GI50: 17.5 µM (inactive)
[38]
  GI50: 19.7 µM (inactive)
[39]
  GI50: 19.9 µM (inactive)
[40]
  GI50: 17.9 µM (inactive)
[41]
  GI50: 39 µM (inactive)
[42]
  GI50: 22.8 µM (inactive)
[43]
  GI50: 13 µM
[44]
  GI50: 18.8 µM (inactive)
[45]
  GI50: 8.99 µM (inactive)
[46]
  GI50: 18.5 µM (inactive)
[47]
  GI50: 17.9 µM (inactive)
[48]
  GI50: 3.18 µM (inactive)
[49]
  GI50: 25.2 µM (inactive)
[50]
  GI50: 3.22 µM (inactive)
[51]
  GI50: 32.8 µM (inactive)
[52]
  GI50: 15.3 µM (inactive)
[53]
  GI50: 9.27 µM (inactive)
[54]
  GI50: 17.1 µM (inactive)
[55]
  GI50: 12.2 µM (inactive)
[56]
  GI50: 14.5 µM (inactive)
[57]
  GI50: 6.59 µM (inactive)
[58]
  GI50: 10.5 µM (inactive)
[59]
  GI50: 19.4 µM (inactive)
